In US4104384A, “1-(2'-Aroyl eth-1'yl) 2-(4"-acetamido piperazine-1"yl methyl) benzimidazoles and their therapeutical applications” (priority 1975, dated 1978):

How the values were obtained:
stress ulcers = experiment: Anti-ulcerous properties: ulcerations in rat under stress for 7 hours, oral; type: in vivo; conditions: po, read-out: Percentage reduction of stress ulcers
[1] = test system: uterine horn of a female rabbit; experiment: Spasmolytic in vivo: contractions of the uterine horn caused by electric stimulation; conditions: 53 mg/kg/i.d.
Description: (§1) The compounds of formula (I), administered intraduodenally are capable of reducing the contractions of the jejunal ansa of a rabbit, caused by electric stimulation.
The same test was studied with the uterine horn of a female rabbit.
For example, compound No 73.0442, administered at a dose of 53 mg/kg/i.d. reduces by 85 % for more than an hour, the contractions of the uterine horn of a female rabbit caused by electric stimulation.

painful stretchings = experiment: Analgesic: painful stretchings following intraperitoneal injection of acetic acid; type: in vivo; conditions: po; mouse, 100 mg/kg/p.o.; read-out: Percentage diminution painful stretchings
Text: The compounds of formula (I), administered orally to a mouse, are capable of reducing the number of painful stretchings following intraperitioneal injection of acetic acid.

gastric secretion = experiment: Gastric antisecretory properties: gastric secretion after Shay ligature, intraduodenal; type: in vivo; conditions: intraduodenal, rat, read-out: Reduction of volume of gastric secretion
Text: Administered intraduodenally to a rat, the compounds of formula (I) are capable of reducing gastric secretion measured after Shay ligature.

Shay's ulcer = experiment: Anti-ulcerous properties: ulceration caused by ligature of the pylorus (Shay's ulcers), intraduodenal; type: in vivo; conditions: rat, read-out: Percentage reduction of Shay's ulcer
Text: Furthermore, the compounds of formula (I) administered intraduodenally reduce the ulceration area caused by ligature of the pylorus of a rat (Shay's ulcers).

[2] = test system: bronchoconstriction caused by acetylcholine; experiment: Anticholinergic and antibronchoconstrictive: bronchoconstriction by intravenous acetylcholine, Konzett's method; type: in vivo; conditions: Cavia porcellus, intraduodenal; guinea-pig, i.d., 25 mg/kg; read-out: Percentage inhibition of the bronchoconstriction
Text: Injected intravenously or intraduodenally, the compounds of formula (I) are capable of opposing bronchoconstriction caused in a guinea-pig by intravenous injection of acetylcholine and evaluated by Konzett's method.

[3] = Acute toxicity, lethal dose 50; conditions: mouse, in vivo, po, read-out: Lethal dose 50 (mouse) / DL 50 (mouse) (converted)
jejunal ansa of a rabbit = experiment: Spasmolytic in vivo: contractions of the jejunal ansa caused by electric stimulation; conditions: 26.5 mg/kg/i.d.
Text: as §1

arterial pressure = experiment: Anti-hypertensive: arterial pressure in genetically hyperstressed vigil rats (S.H.R.); type: in vivo, rat; conditions: 10 mg/kg/p.o., 4 hours
Description: The compounds of formula (I) are capable, 4 hours after their oral injection, of bringing the arterial pressure down to normal in genetically hyperstressed vigil rats (S.H.R.).

volume of urine emitted = experiment: Diuretic: volume of urine emitted; type: in vivo; conditions: po; rat, urine volume for 6 hours following administration; read-out: DE 50 (diuretic)
Description: The compounds of formula (I), administered orally to a rat, increase the volume of urine emitted, relative to controls, the volume being measured for the 6 hours following administration.

For `CC(C)NC(=O)CN1CCN(Cc2nc3ccccc3n2CCC(=O)c2ccccc2)CC1` [73 0442], the inhibition in vivo at 5.2 mg/kg (stress ulcers; 5.2 mg/kg/p.o.) was 99%, the “reduction of the contractions of the uterine horn for more than an hour” value [1] was 85% and the inhibition in vivo at 100 mg/kg (painful stretchings) was 80%. It also gave an inhibition in vivo at 2.1 mg/kg (gastric secretion; 2.1 mg/kg/i.d.) of 68%, an inhibition in vivo at 7.6 mg/kg (Shay's ulcer; 7.6 mg/kg/i.d.) of 88% and an inhibition in vivo at 25 mg/kg [2] of 100%. The LD50 [3] was 798 mg/kg and the “Diminution of contractions of the jejunum for more than an hour” value (jejunal ansa of a rabbit) was 67%.

With `COc1ccccc1C(=O)CCn1c(CN2CCN(CC(=O)NC(C)C)CC2)nc2ccccc21` [75 0011] the inhibition in vivo at 20 mg/kg (stress ulcers; 20 mg/kg/p.o.) was 51%, the “arterial pressure brought down to normal” value (arterial pressure) was 4 animals out of 7 and the ED50 (volume of urine emitted) was 1 mg/kg. For the same compound, the inhibition in vivo at 25 mg/kg (gastric secretion; 25 mg/kg/i.d.) was 75%, the inhibition in vivo at 40 mg/kg (Shay's ulcer; 40 mg/kg/i.d.) was 78% and the LD50 [3] was 120 mg/kg.
